Assay results from patent publication US9708266B2, “Cyclohexyl pyridine derivative” (priority 2014, dated 2017).

Tests used:
human NK1 receptor = human NK1 receptor (Homo sapiens (Human), UniProt P25103); test: Affinity for human NK1 receptor (125I-substance P receptor binding test); conditions: membrane fraction of human NK1 receptor-expressing 293T cells; read-out: IC50 (concentration required for 50% inhibition of 125I-substance P binding)
Description: Affinity for Human NK1 Receptor
PCR was performed using human adult normal tissue-derived brain cDNA (BioChain) as the template, with the forward primer of SEQ ID NO:1 and the reverse primer of SEQ ID NO:2, using a PCR enzyme, PrimeSTAR Max DNA Polymerase or PrimeSTAR GXL DNA Polymerase (registered trademark, Takara Bio). The amplified product was inserted into a plasmid (pCR-BluntII-TOPO (registered trademark), Life Technologies) using Zero Blunt PCR Cloning Kit (registered trademark, Life Technologies). By a general method, Escherichia coli (One Shot TOP10 competent cells, Life Technologies) was transformed by the plasmid into which the amplified product had been inserted. The Escherichia coli cells were cultured on an LB agar medium containing 50 μg/mL kanamycin for a day. After the culture, a colony was selected and cultured in an LB medium containing 50 μg/mL of kanamycin. After the culture, the plasmid was purified using Quantum Prep Plasmid Miniprep Kit (Bio-Rad). The plasmid was double digested for about two hours using restriction enzymes, XhoI and HindIII (New England Biolabs). Then, electrophoresis using 1% agarose gel was performed, and the fragment that was cleaved was collected and purified using TaKaRa RICOCHIP (Takara Bio). […]

NK1 receptor = NK1 receptor (Meriones unguiculatus (Mongolian jird) (Gerbillus unguiculatus), UniProt Q5DUB1); test: Effect on GR73632-induced foot-tapping; assay type: in vivo; conditions: male gerbil, 0.1 mg/kg iv, GR73632 icv after four hours
Chain of NK1 receptor (Q5DUB1 whole entry): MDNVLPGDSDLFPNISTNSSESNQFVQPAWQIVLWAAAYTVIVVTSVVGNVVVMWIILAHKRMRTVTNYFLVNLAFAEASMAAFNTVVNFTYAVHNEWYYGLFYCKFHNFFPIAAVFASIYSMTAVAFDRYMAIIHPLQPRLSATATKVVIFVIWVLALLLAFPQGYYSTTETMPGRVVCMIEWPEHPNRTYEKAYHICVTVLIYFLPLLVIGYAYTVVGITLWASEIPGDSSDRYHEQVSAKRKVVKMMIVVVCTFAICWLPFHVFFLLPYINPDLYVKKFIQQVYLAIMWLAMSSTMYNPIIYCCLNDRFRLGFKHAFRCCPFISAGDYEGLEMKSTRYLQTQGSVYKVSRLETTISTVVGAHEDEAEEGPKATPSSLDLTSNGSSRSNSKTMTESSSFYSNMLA
Description: The test compound solution was prepared by dissolving the test compound in a vehicle (a mixture of 50% N,N-dimethylacetamide (Wako Pure Chemical Industries), 30% propylene glycol (Wako Pure Chemical Industries), 4% 2-hydroxypropyl-[…] (Wako Pure Chemical Industries) and 16% distilled water).
A male gerbil (Japan SLC) was anesthetized with isoflurane, and 0.1 mg/kg of a test compound was administered from the jugular vein. After four hours, GR73632 (5 pmol/5 μl saline), which is an NK1 receptor agonist, was administered into the cerebral ventricle at the part 1 mm lateral to and 4.5 mm below the bregma in the head, under anesthesia with isoflurane. After the administration, the gerbil was moved to an observation cage, and the foot-tapping period during 30 minutes after the recovery of the righting reflex was measured. The foot-tapping inhibition rate (%) of each test compound was calculated by the following equation. Foot-tapping inhibition rate (%)={1−(Foot-tapping period when test compound was administered)/(Foot-tapping period when solvent was administered)}×100 (2) Measurement of Drug Concentrations

Chain of human NK1 receptor (P25103 whole entry): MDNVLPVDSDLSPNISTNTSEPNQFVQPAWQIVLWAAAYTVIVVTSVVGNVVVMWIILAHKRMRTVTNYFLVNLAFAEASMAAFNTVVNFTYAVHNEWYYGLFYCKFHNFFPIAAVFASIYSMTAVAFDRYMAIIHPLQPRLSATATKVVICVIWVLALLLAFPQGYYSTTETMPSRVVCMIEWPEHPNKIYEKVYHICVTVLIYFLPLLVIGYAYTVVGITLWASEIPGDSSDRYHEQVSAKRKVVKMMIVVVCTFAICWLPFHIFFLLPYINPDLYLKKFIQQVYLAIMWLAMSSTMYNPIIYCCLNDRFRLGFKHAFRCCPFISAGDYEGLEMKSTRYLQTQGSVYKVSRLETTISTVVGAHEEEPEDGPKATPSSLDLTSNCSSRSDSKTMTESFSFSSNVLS

## Cc1cc(F)ccc1-c1cc(C2CCC(CCC(=O)O)CC2)ncc1N(C)C(=O)C(C)(C)c1cc(C(F)(F)F)cc(C(F)(F)F)c1 (centres unmarked) [Example 2, 3-{4-[5-{[2-(3,5-Bistrifluoromethylphenyl)-2-methylpropionyl]methylamino}-4-(4-fluoro-2-methylphenyl)pyridin-2-yl]cyclohexyl}propionic acid]
Human NK1 receptor
  IC50: 1.78 nM
NK1 receptor
  Inhibition (foot-tapping inhibition rate): 100%
